Laboratory results published in the NIST ThermoML archive (doi:10.1016/j.jct.2008.07.013).
± gives the expanded uncertainty stated by the source.

What was measured:
[1] = Liquid, Alternating current cell with electrodes
[2] = molar heat capacity at constant pressure; settings: 101.33 kPa, Liquid, Small sample (50 mg) DSC

In the case of `CCn1cc[n+](C)c1.COCCOCCOS(=O)(=O)[O-]` [1-ethyl-3-methylimidazolium 2-(2-methoxyethoxy) ethylsulfate], the electrical conductivity ([1]; 293.2 K) is reported as 0.11 ± 0.031 S/m, the electrical conductivity ([1]; 298.2 K) is reported as 0.147 ± 0.025 S/m and the electrical conductivity ([1]; 303.2 K) is reported as 0.194 ± 0.025 S/m. For the same molecule, the electrical conductivity ([1]; 308.2 K) was 0.244 ± 0.028 S/m, the electrical conductivity ([1]; 313.2 K) was 0.307 ± 0.036 S/m and the electrical conductivity ([1]; 318.2 K) was 0.378 ± 0.031 S/m. For the same molecule, the electrical conductivity ([1]; 323.2 K) was 0.459 ± 0.033 S/m, the electrical conductivity ([1]; 328.2 K) was 0.545 ± 0.033 S/m and the electrical conductivity ([1]; 333.2 K) was 0.641 ± 0.031 S/m. For the same molecule, the electrical conductivity ([1]; 343.2 K) was 0.859 ± 0.036 S/m, the electrical conductivity ([1]; 353.2 K) was 1.12 ± 0.036 S/m and the “molar heat capacity at constant pressure” value ([2]; 303.2 K) was 526.38 ± 69 J/K/mol. For the same molecule, the “molar heat capacity at constant pressure” value ([2]; 308.2 K) was 527.94 ± 69 J/K/mol, the “molar heat capacity at constant pressure” value ([2]; 313.2 K) was 529.49 ± 69 J/K/mol and the “molar heat capacity at constant pressure” value ([2]; 318.2 K) was 531.04 ± 70 J/K/mol. The “molar heat capacity at constant pressure” value ([2]; 323.2 K) was 532.59 ± 70 J/K/mol, the “molar heat capacity at constant pressure” value ([2]; 328.2 K) was 533.83 ± 70 J/K/mol and the “molar heat capacity at constant pressure” value ([2]; 333.2 K) was 535.7 ± 70 J/K/mol. For the same molecule, the “molar heat capacity at constant pressure” value ([2]; 338.2 K) was 537.25 ± 70 J/K/mol, the “molar heat capacity at constant pressure” value ([2]; 343.2 K) was 538.8 ± 70 J/K/mol and the “molar heat capacity at constant pressure” value ([2]; 348.2 K) was 540.66 ± 71 J/K/mol. The “molar heat capacity at constant pressure” value ([2]; 353.2 K) was 542.21 ± 71 J/K/mol and the “molar heat capacity at constant pressure” value ([2]; 358.2 K) was 544.08 ± 71 J/K/mol.
With `CCn1cc[n+](C)c1.N#CN=C=[N-]` [1-ethyl-3-methylimidazolium dicyanamide] the electrical conductivity ([1]; 293.2 K) was 1.89 ± 0.036 S/m, the electrical conductivity ([1]; 298.2 K) was 2.2 ± 0.042 S/m and the electrical conductivity ([1]; 303.2 K) was 2.55 ± 0.036 S/m. For the same molecule, the electrical conductivity ([1]; 308.2 K) was 2.9 ± 0.028 S/m, the electrical conductivity ([1]; 313.2 K) was 3.29 ± 0.036 S/m and the electrical conductivity ([1]; 318.2 K) was 3.68 ± 0.036 S/m. For the same molecule, the electrical conductivity ([1]; 323.2 K) was 4.1 ± 0.039 S/m, the electrical conductivity ([1]; 328.2 K) was 4.54 ± 0.031 S/m and the electrical conductivity ([1]; 333.2 K) was 5.02 ± 0.031 S/m. For the same molecule, the electrical conductivity ([1]; 343.2 K) was 5.93 ± 0.033 S/m, the electrical conductivity ([1]; 353.2 K) was 6.86 ± 0.028 S/m and the “molar heat capacity at constant pressure” value ([2]; 303.2 K) was 328.01 ± 43 J/K/mol. For the same molecule, the “molar heat capacity at constant pressure” value ([2]; 308.2 K) was 329.96 ± 43 J/K/mol, the “molar heat capacity at constant pressure” value ([2]; 313.2 K) was 332.97 ± 44 J/K/mol and the “molar heat capacity at constant pressure” value ([2]; 318.2 K) was 335.1 ± 44 J/K/mol. The “molar heat capacity at constant pressure” value ([2]; 323.2 K) was 338.64 ± 44 J/K/mol, the “molar heat capacity at constant pressure” value ([2]; 328.2 K) was 340.77 ± 44 J/K/mol and the “molar heat capacity at constant pressure” value ([2]; 333.2 K) was 342.72 ± 45 J/K/mol. The “molar heat capacity at constant pressure” value ([2]; 338.2 K) was 344.49 ± 45 J/K/mol, the “molar heat capacity at constant pressure” value ([2]; 343.2 K) was 346.44 ± 45 J/K/mol and the “molar heat capacity at constant pressure” value ([2]; 348.2 K) was 348.92 ± 46 J/K/mol. For the same molecule, the “molar heat capacity at constant pressure” value ([2]; 353.2 K) was 351.58 ± 46 J/K/mol and the “molar heat capacity at constant pressure” value ([2]; 358.2 K) was 354.24 ± 46 J/K/mol.
For `CCOS(=O)(=O)[O-].CCn1cc[n+](C)c1` [1-ethyl-3-methylimidazolium ethyl sulfate], the electrical conductivity ([1]; 293.2 K) was 0.31 ± 0.022 S/m, the electrical conductivity ([1]; 298.2 K) was 0.398 ± 0.025 S/m and the electrical conductivity ([1]; 303.2 K) was 0.493 ± 0.008 S/m. The electrical conductivity ([1]; 308.2 K) was 0.603 ± 0.028 S/m, the electrical conductivity ([1]; 313.2 K) was 0.722 ± 0.028 S/m and the electrical conductivity ([1]; 318.2 K) was 0.852 ± 0.028 S/m. For the same molecule, the electrical conductivity ([1]; 323.2 K) was 1 ± 0.025 S/m, the electrical conductivity ([1]; 328.2 K) was 1.17 ± 0.025 S/m and the electrical conductivity ([1]; 333.2 K) was 1.34 ± 0.025 S/m. For the same molecule, the electrical conductivity ([1]; 343.2 K) was 1.74 ± 0.028 S/m, the electrical conductivity ([1]; 353.2 K) was 2.15 ± 0.028 S/m and the “molar heat capacity at constant pressure” value ([2]; 303.2 K) was 429.81 ± 56 J/K/mol. For the same molecule, the “molar heat capacity at constant pressure” value ([2]; 308.2 K) was 431.7 ± 56 J/K/mol, the “molar heat capacity at constant pressure” value ([2]; 313.2 K) was 435.01 ± 57 J/K/mol and the “molar heat capacity at constant pressure” value ([2]; 318.2 K) was 437.14 ± 57 J/K/mol. For the same molecule, the “molar heat capacity at constant pressure” value ([2]; 323.2 K) was 441.39 ± 58 J/K/mol, the “molar heat capacity at constant pressure” value ([2]; 328.2 K) was 444.46 ± 58 J/K/mol and the “molar heat capacity at constant pressure” value ([2]; 333.2 K) was 447.3 ± 59 J/K/mol. For the same molecule, the “molar heat capacity at constant pressure” value ([2]; 338.2 K) was 450.13 ± 59 J/K/mol, the “molar heat capacity at constant pressure” value ([2]; 343.2 K) was 452.97 ± 59 J/K/mol and the “molar heat capacity at constant pressure” value ([2]; 348.2 K) was 456.51 ± 60 J/K/mol. The “molar heat capacity at constant pressure” value ([2]; 353.2 K) was 461 ± 60 J/K/mol and the “molar heat capacity at constant pressure” value ([2]; 358.2 K) was 463.6 ± 61 J/K/mol.
For `CCn1cc[n+](C)c1.F[B-](F)(F)F` [1-ethyl-3-methylimidazolium tetrafluoroborate], the electrical conductivity ([1]; 293.2 K) was 1.38 ± 0.025 S/m, the electrical conductivity ([1]; 298.2 K) was 1.57 ± 0.028 S/m and the electrical conductivity ([1]; 303.2 K) was 1.789 ± 0.008 S/m. For the same molecule, the electrical conductivity ([1]; 308.2 K) was 2.04 ± 0.028 S/m, the electrical conductivity ([1]; 313.2 K) was 2.32 ± 0.036 S/m and the electrical conductivity ([1]; 318.2 K) was 2.59 ± 0.036 S/m. For the same molecule, the electrical conductivity ([1]; 323.2 K) was 2.91 ± 0.033 S/m, the electrical conductivity ([1]; 328.2 K) was 3.25 ± 0.033 S/m and the electrical conductivity ([1]; 333.2 K) was 3.59 ± 0.031 S/m. For the same molecule, the electrical conductivity ([1]; 343.2 K) was 4.35 ± 0.036 S/m, the electrical conductivity ([1]; 353.2 K) was 5.18 ± 0.031 S/m and the “molar heat capacity at constant pressure” value ([2]; 303.2 K) was 306.26 ± 40 J/K/mol. The “molar heat capacity at constant pressure” value ([2]; 308.2 K) was 308.44 ± 40 J/K/mol, the “molar heat capacity at constant pressure” value ([2]; 313.2 K) was 310.61 ± 41 J/K/mol and the “molar heat capacity at constant pressure” value ([2]; 318.2 K) was 312.79 ± 41 J/K/mol. The “molar heat capacity at constant pressure” value ([2]; 323.2 K) was 314.38 ± 41 J/K/mol, the “molar heat capacity at constant pressure” value ([2]; 328.2 K) was 315.37 ± 41 J/K/mol and the “molar heat capacity at constant pressure” value ([2]; 333.2 K) was 316.36 ± 41 J/K/mol. The “molar heat capacity at constant pressure” value ([2]; 338.2 K) was 318.34 ± 42 J/K/mol, the “molar heat capacity at constant pressure” value ([2]; 343.2 K) was 319.33 ± 42 J/K/mol and the “molar heat capacity at constant pressure” value ([2]; 348.2 K) was 321.3 ± 42 J/K/mol. The “molar heat capacity at constant pressure” value ([2]; 353.2 K) was 322.89 ± 42 J/K/mol and the “molar heat capacity at constant pressure” value ([2]; 358.2 K) was 323.48 ± 42 J/K/mol.
In the case of `CCn1cc[n+](C)c1.O=S(=O)([O-])C(F)(F)F` [1-ethyl-3-methylimidazolium trifluoromethanesulfonate], the electrical conductivity ([1]; 293.2 K) is reported as 0.834 ± 0.028 S/m, the electrical conductivity ([1]; 298.2 K) is reported as 0.979 ± 0.028 S/m and the electrical conductivity ([1]; 303.2 K) is reported as 1.16 ± 0.033 S/m. It also gave an electrical conductivity ([1]; 308.2 K) of 1.34 ± 0.036 S/m, an electrical conductivity ([1]; 313.2 K) of 1.52 ± 0.031 S/m and an electrical conductivity ([1]; 318.2 K) of 1.74 ± 0.031 S/m. The electrical conductivity ([1]; 323.2 K) was 1.94 ± 0.033 S/m, the electrical conductivity ([1]; 328.2 K) was 2.17 ± 0.039 S/m and the electrical conductivity ([1]; 333.2 K) was 2.42 ± 0.036 S/m. For the same molecule, the electrical conductivity ([1]; 343.2 K) was 2.94 ± 0.028 S/m, the electrical conductivity ([1]; 353.2 K) was 3.51 ± 0.036 S/m and the “molar heat capacity at constant pressure” value ([2]; 303.2 K) was 379.42 ± 50 J/K/mol. For the same molecule, the “molar heat capacity at constant pressure” value ([2]; 308.2 K) was 381.5 ± 50 J/K/mol, the “molar heat capacity at constant pressure” value ([2]; 313.2 K) was 383.33 ± 50 J/K/mol and the “molar heat capacity at constant pressure” value ([2]; 318.2 K) was 385.41 ± 50 J/K/mol. The “molar heat capacity at constant pressure” value ([2]; 323.2 K) was 387.49 ± 51 J/K/mol, the “molar heat capacity at constant pressure” value ([2]; 328.2 K) was 389.57 ± 51 J/K/mol and the “molar heat capacity at constant pressure” value ([2]; 333.2 K) was 391.65 ± 51 J/K/mol. The “molar heat capacity at constant pressure” value ([2]; 338.2 K) was 393.74 ± 52 J/K/mol, the “molar heat capacity at constant pressure” value ([2]; 343.2 K) was 395.82 ± 52 J/K/mol and the “molar heat capacity at constant pressure” value ([2]; 348.2 K) was 397.9 ± 52 J/K/mol. The “molar heat capacity at constant pressure” value ([2]; 353.2 K) was 399.72 ± 52 J/K/mol and the “molar heat capacity at constant pressure” value ([2]; 358.2 K) was 401.8 ± 53 J/K/mol.
